Results from patent US9340577B2, “HLA binding motifs and peptides and their uses” (priority 1992, dated 2016).
Where two headings read alike, the source gives them in different places. No end group written: not given here.

Key:
Assay in all cases: biochemical
DR7 (DRB1*0701) = DR7 (DRB1*0701) (Homo sapiens, UniProt P01903+P01911, A100R/A102G/A103Q/D57E/D86V/E43K/F76Y/K127E/L162R/M171V/P40G/Q125H/Q99D/R33Q/R42Y/R54Q/S133A/S66F/T210M/V115G/Y107V/Y59L/Y89S); type: binding
DRB1*1101 = DRB1*1101 (Homo sapiens, UniProt P01903+P01911, A100R/A169T/A87E/I96F/K41T/L162R/M171V/P40S/Q125H/Q178H/Q39Y/Q99D/R42S/S66Y/T262R/V115G/W38E)
Sequence of DRB1*1101 (P01903 26-254 limits assumed, other chains not shown): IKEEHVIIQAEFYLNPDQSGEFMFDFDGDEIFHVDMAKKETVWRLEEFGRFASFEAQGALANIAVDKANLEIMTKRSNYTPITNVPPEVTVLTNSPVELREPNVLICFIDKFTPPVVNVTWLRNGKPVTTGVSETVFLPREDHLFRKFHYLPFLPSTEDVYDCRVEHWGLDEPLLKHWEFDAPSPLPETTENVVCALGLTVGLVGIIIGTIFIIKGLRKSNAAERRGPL

DRB4*0101 = DRB4*0101 (Homo sapiens, UniProt P01903+P13762, G164S); type: binding
DRB1*0802 = DRB1*0802 (Homo sapiens, UniProt P01903+P01911, A100R/A103L/A169T/F76Y/H45Y/I96F/K41T/L162R/M171V/P40S/Q125H/Q178H/Q39Y/Q99D/R218S/R42G/S66Y/V115G/W38E); type: binding
DRB1*1302 = DRB1*1302 (Homo sapiens, UniProt P01903+P01911, A100E/A169T/K41T/L162R/M171V/P40S/Q125H/Q178H/Q39Y/Q99D/R42S/S66N/T262R/V115G/W38E/Y61H); type: binding
Sequence of DRB1*1302 (P01903 26-254 limits assumed, other chains not shown): as above

DR1 (DRB1*0101) = DR1 (DRB1*0101) (Homo sapiens, UniProt P01903+P01911, A100R/D57E/F55L/F60I/F76Y/I96L/L162R/M171V/P40L/Q125E/R42F/V115G/Y59C); type: binding
DRB1*0405 = DRB1*0405 (Homo sapiens, UniProt P01903+P01911, A100R/A169T/D86S/F76Y/I96L/K127E/L162R/M171V/N62H/P40V/Q125Y/R42H/S133A/S149N/S66Y/V115G/V209L/W38E); type: binding
DRB1*1501 = DRB1*1501 (Homo sapiens, UniProt P01903+P01911); type: binding
DRB1*0901 = DRB1*0901 (Homo sapiens, UniProt P01903+P01911, A100R/A103E/D57H/D86V/F55Y/F60I/F76Y/I96F/K127E/L162R/M171V/P40D/Q125H/Q99R/R33Q/R42F/S133A/S66N/T210M/V115G/W38K/Y107V/Y59G/Y89S); type: binding
DR4w4 (DRB1*0401) = DR4w4 (DRB1*0401) (Homo sapiens, UniProt P01903+P01911, A100K/A169T/F76Y/I96L/K127E/L162R/M171V/N62H/P40V/Q125Y/R42H/S133A/S149N/S66Y/V115G/V209L/W38E); type: binding
DRB5*0101 = DRB5*0101 (Homo sapiens, UniProt P01903+Q30154)

| Molecule | IC50 (DR7 (DRB1*0701)) [µM] | IC50 (DRB1*1101) [µM] | IC50 (DRB4*0101) [µM] | IC50 (DRB1*0802) [µM] | IC50 (DRB1*1302) [µM] | IC50 (DR1 (DRB1*0101)) [µM] | IC50 (DRB1*0405) [µM] | IC50 (DRB1*1501) [µM] | IC50 (DRB1*0901) [µM] | IC50 (DR4w4 (DRB1*0401)) [µM] | IC50 (DRB1*1101; Binding affinity DRB1 *1101) [µM] | IC50 (DRB5*0101; Binding affinity DRB5 *0101) [µM] | IC50 (DRB5*0101) [µM] |
| --- | --- | --- | --- | --- | --- | --- | --- | --- | --- | --- | --- | --- | --- |
| RKTIAKALSSILNVP [Peptide 89.0123] | > 20 | > 20 | 0.746 | > 20 | > 20 | > 20 | > 20 | > 20 | > 20 | 11.5 | – | – | – |
| IHFLKGCIISYVNSK [Peptide 89.0147] | 6.49 | – | 1.36 | > 20 | > 20 | > 20 | > 20 | > 20 | > 20 | 3.84 | > 20 | > 20 | – |
| DSEIAYKYAQLADSD [Peptide 89.0051] | > 20 | – | 1.34 | 0.624 | > 20 | – | 12.2 | 1.09 | 5.32 | > 20 | 3.38 | > 20 | – |
| CSAIEVQIALESLST [Peptide 90.0018] | 5.26 | – | 0.029 | > 20 | 0.617 | – | 3.32 | > 20 | 12 | 0.24 | > 20 | > 20 | – |
| LKTVKIPNTVQVIQG [Peptide 90.0017] | 0.777 | – | > 20 | > 20 | 0.033 | 8.18 | 19.2 | > 20 | > 20 | > 20 | > 20 | > 20 | – |
| LSQVKIPKTITVSTG [Peptide 89.0158] | 5.83 | – | > 20 | > 20 | > 20 | 4.5 | > 20 | 1.91 | 5.48 | 0.373 | 3.63 | > 20 | – |
| EVHVGGQVIVCPTSI [Peptide 89.0184] | > 20 | – | > 20 | > 20 | > 20 | > 20 | 0.557 | > 20 | > 20 | > 20 | > 20 | > 20 | – |
| ALSVSKAKALQAIEL [Peptide 89.0170] | 3.21 | – | > 20 | > 20 | 1.63 | 0.084 | 8.43 | > 20 | 4.33 | 0.281 | > 20 | > 20 | – |
| RQHLANHPAATHTKA [Peptide 89.0155] | > 20 | – | > 20 | > 20 | 0.878 | > 20 | > 20 | 8.66 | > 20 | > 20 | 16 | > 20 | – |
| NHQVVPALSVSKAKA [Peptide 89.0168] | > 20 | – | > 20 | > 20 | 0.9 | > 20 | > 20 | 7.34 | > 20 | 0.959 | > 20 | > 20 | – |
| LIKFFQGSVISFVNS [Peptide 89.0135] | > 20 | > 20 | 3.73 | 7.98 | 0.071 | > 20 | > 20 | > 20 | > 20 | > 20 | – | – | > 20 |
| NSIFDFGEMVQWAYD [Peptide 89.0106] | 5.98 | – | 3.95 | > 20 | 0.532 | 4.85 | > 20 | 9.98 | > 20 | 5.25 | > 20 | > 20 | – |
| SQLLNIPETHMVIEP [Peptide 89.0102] | > 20 | – | 0.807 | > 20 | > 20 | > 20 | > 20 | > 20 | > 20 | > 20 | > 20 | > 20 | – |
| DSEIAYKYAQLADTN [Peptide 89.0012] | > 20 | – | 0.275 | 1.12 | > 20 | 0.734 | 11 | 3.44 | 1.93 | 1.95 | 3.54 | 19.6 | – |
| FQVIELQMALETLSK [Peptide 89.0182] | 0.183 | – | > 20 | > 20 | > 20 | 1.01 | 0.232 | 14 | 0.751 | 0.224 | 2.11 | – | – |
| QAELETAQALFHAQE [Peptide 89.0022] | 3.01 | – | 0.072 | > 20 | 2.78 | – | 0.592 | > 20 | 0.338 | 0.122 | > 20 | 1.95 | – |
| VKFLRYQQIEFVSFL [Peptide 89.0052] | 4.59 | – | 0.002 | 7.05 | 0.024 | – | 2.77 | 0.535 | 3.21 | 1.28 | 1.1 | 11.2 | – |
| GQVIVCPTSISSNQI [Peptide 89.0185] | > 20 | – | 1.75 | 1.63 | 1.33 | – | 7.59 | 3.76 | > 20 | 0.091 | 6.53 | 2.48 | – |
| LKVLIKQHSIYTHLQ [Peptide 89.0142] | > 20 | – | > 20 | > 20 | 0.448 | – | > 20 | > 20 | > 20 | > 20 | > 20 | > 20 | – |
| CC[C@H](C)[C@H](NC(=O)[C@H](C)NC(=O)[C@H](CCCCN)NC(=O)[C@H](Cc1c[nH]cn1)NC(=O)[C@H](C)NC(=O)[C@H](CCCCN)NC(=O)[C@H](CO)NC(=O)[C@H](CCCCN)NC(=O)[C@H](CO)NC(=O)[C@@H](NC(=O)[C@H](CC(N)=O)NC(=O)[C@H](Cc1ccc(O)cc1)NC(=O)[C@H](C)N)[C@@H](C)CC)C(=O)N[C@@H](CCC(=O)O)C(=O)N[C@@H](CC(C)C)C(=O)O [Peptide 89.0159] | > 20 | – | > 20 | > 20 | > 20 | 0.651 | > 20 | > 20 | > 20 | > 20 | > 20 | > 20 | – |
| RNLVDGNPISLDRKH [Peptide 89.0137] | 7.38 | > 20 | 0.992 | > 20 | > 20 | 11.2 | > 20 | > 20 | > 20 | 1.04 | – | – | > 20 |
| QKCFKKKGITVTVQY [Peptide 90.0026] | 4.39 | – | 1.31 | 1.33 | 0.837 | – | 2.91 | > 20 | 0.639 | 0.996 | 7.82 | > 20 | – |
| QQLLQVQTAHADKQT [Peptide 89.0115] | > 20 | – | 0.932 | > 20 | > 20 | 1.11 | > 20 | 10.5 | > 20 | 5.5 | – | – | 0.086 |
| KNCILIHGAPNTGKS [Peptide 89.0055] | 7.3 | – | 0.577 | > 20 | 8.91 | – | 3.85 | 1.4 | 17 | > 20 | 19.9 | > 20 | – |
